{
  "source": "patent US5422393A",
  "about": "“Natriuretic hormone” (Naturon Pharmaceutical Corporation, priority 1993, dated 1995)",
  "biological_target": "T1, Na-K-ATPase (Bos taurus, UniProt Q08DA1)",
  "T1 construct": "86Rb uptake",
  "assay": "Microassay: inhibition of ^86 Rb uptake by MDBK cell cultures",
  "assay_type": "cell-based, bovine",
  "text": "Such a cell line is available from the American Type Culture Collection, 12301 Park Lawn Drive, Rockville, Md. 20852. USA, where it is identified by the reference ATCC CCL34 (certified cell line). The preferred method of assaying bioactivity according to the present invention, described in Example II below, employs a microassay which is based upon the ability of the natriuretic compound of the present invention to inhibit ^86 Rb influx by MDBK cells grown in culture. Ouabain (10^-5 M) is used as the reference inhibitor.\nThe natriuretic activity of the Natriuretic Hormone can be ascertained by its effect on the uptake of ^86 Rb by MDBK ([…] Bovine Kidney Cell) cultures. […]\nApproximately 200,000 MDBK cells were plated in trays containing 12 […] wells, and grown for four days at 37° C. in Dulbecco's modified Eagle media (DMEM) (Gibco #430-2100), to which was added (per liter) 3.7 g sodium bicarbonate, 5 mg phenol red, 10% fetal calf serum, 10^6 units penicillin-G sulfate, 0.1 g equivalent base streptomycin sulfate, 7.34 mg polymyxin-B sulfate, and 3.4 mg fungizone and maintained in an atmosphere of 5% CO2, 95% air. […] 0.5 ml of 5% TCA was added to each well and incubated for 10 minutes at 37° C. to release radioactivity inside the cells. […] The ^86 Rb activity was counted in a scintillation counter (Beckman LS 3-801). […] Data were recorded as cpm/mg cell protein. […]",
  "note": "“And” between values parts separate entries of the source, which are not always exact repeats. Equal values may be shown once.",
  "data": [
    {"smiles": "C[C@@H]1O[C@@H](O[C@H]2C[C@@H](O)[C@]3(CO)[C@H]4[C@H](O)C[C@]5(C)[C@@H](C6=CC(=O)OC6)CC[C@]5(O)[C@@H]4CC[C@]3(O)C2)[C@H](O)[C@H](O)[C@H]1O", "note": "[Ouabain]", "values": [
      {"measurement": "^86 Rb uptake, cpm/mg of protein", "setting": "10^-5 M ouabain, positive control, run in duplicate", "result": "17,649 cpm/mg of protein and 15,611 cpm/mg of protein"},
      {"measurement": "inhibition at 10 µM", "setting": "MDBK, read-out: % inhibition of ^86 Rb uptake", "result": 77.7, "unit": "%"}
    ]}
  ]
}
